Where a name gives a salt, the structure may show the parent alone.
Test system: H1N1 virus (A/Vicotria/07159200/07 (Tamiflu-resistant strain))
Assay type: cell-based, Human influenza H1N1 virus
Conditions: for effect on viral titers of Tamiflu-resistant (Tami-R) H1N1 virus: FIG. 1, multiplicity of infection of 0.2

N=C(Nc1ccccc1)SCCCSC(=N)Nc1ccccc1 [Compound 58, Carbamimidothioic acid, phenyl-, 1,3-propanediyl ester, dihydrobromide]
effect on viral titers of Tamiflu-resistant (Tami-R) H1N1 virus: potent inhibitory effects | viral titer of Tami-R H1N1-infected cells decreased (fold) (FIG. 1, multiplicity of infection of 0.2, 48-hour post-infection): 4 fold

CCOC(=O)C1=C[C@@H](OC(CC)CC)[C@H](NC(C)=O)[C@@H](N)C1 [Tamiflu, oseltamivir, reference compound]
Tami-R H1N1 viral titers decreased (%) (10 uM, multiplicity of infection of 0.2, 48-hour post-infection): 20% | effect on viral titers of Tamiflu-resistant (Tami-R) H1N1 virus: minimal effects

From US8742156B2 (priority 2010, dated 2014)
